Measurements as given in patent publication US6518012B1, “Method for regulating the expression of MHC antigens and CD40 by inhibitors of histone deacetylation” (Health Research, Inc., priority 1999, dated 2003).

Assays:
[1] = tested on: cell lines employed; experiment: Toxicity of deacetylase inhibitors (lift-off, trypan-blue dye exclusion, laddering, PI/annexin-V flow cytometry); type: cell-based; settings: 1 mM Na-butyrate for 12-48 hr
Procedure: Two representative DAIs, TSA and NaBu were used for this illustration. […] In some experiments, 100 U/ml γ-IFN was added with and without the deacetylase inhibitor.

[2] = tested on: HLA-DRα mRNA; experiment: HLA-DRα mRNA by standard PCR and real-time PCR in human cell lines JAR and SK-N-MC; type: cell-based
[3] = tested on: HLA-DRα mRNA; experiment: as above; type: cell-based; settings: JAR
Procedure: (§1) To determine the effect of DAIs on HLA-DRα mRNA, cytoplasmic RNA was isolated from untreated and treated human trophoblast cell line JAR using standard techniques (RNeasy System from Qiagen). Standard PCR was performed using primers for DR and CIITA (Murphy et al., 1998, Reprod Dev., Chin et al., 1994, Immunity 1:687-697). Other primers used included human and mouse GAPDH (Clontech) and forward primer 5′-[…]-3′ (SEQ ID NO:25) and reverse primer 5′-[…]-3′ (SEQ ID NO:26) for mouse CIITA. PCR products were amplified with GOLD Taq for 10 min at 95° C., then 95° C. for 30 sec, 60° C. for 60 sec (25-45 cycles), then an extension at 60° C. for 10 min.
(§2) Oligonucleotide primers and TaqMan 5′-6-FAM and 3′-TAMRA-labeled probes were synthesized in the RPCI Biopolymer Facility. Primer and probe sequences are listed under Sequence Listing and also in FIG. 9. Sequences were designed using standard software (PrimerExpress software, PE Biosystems) except for human GAPDH.
(§3) Realtime PCR reactions contained TaqMan Universal PCR Master Mix (PE Biosystems), primers at 300 nM, and probes at optimal concentrations (150-225 nM depending on gene). Reactions were carried out on an ABI PRISM 7700 Sequence Detection System (PE Biosystems). Cycling conditions were 50° C. for 2 min, 95° C. for 10 min, then 60 cycles of 95° C. for 15 sec, 60° C. for 1 min. PCR samples were run in triplicate. The detection system and quantitative PCR was carried out as described by Williamson et al. (1995, Genet Res. 65:83-93). The threshold cycle number CT corresponded to the cycle number, at which the fluorescent emission reaches 10 standard deviations above the mean fluorescent emission, measured during the early ‘baseline’ cycles of the PCR. The CT values for triplicates were averaged and normalized to GAPDH levels. […] Assuming reverse transcription efficiencies were approximately the same for each sample, relative amounts of mRNA using the comparative CT method. Fold changes in mRNA levels were calculated as 2^x where x=the difference between normalized CT values of the control and experimental samples.
To evaluate the effects of DAIs on human cells, the human trophoblast cell line was treated with 100 nM Trichostatin A (TSA), IFNγ (100 U/ml) or a combination of TSA and IFNγ for 12 hours. RNA was isolated and real time quantitative RT-PCR was carried out. The fold increase in mRNA over the control was calculated.

[4] = tested on: class II transactivator (CIITA) mRNA; experiment: CIITA mRNA by standard PCR and real-time PCR in human cell lines JAR and SK-N-MC; type: cell-based
Procedure: as §1, §2, §3
[…] RNA was isolated and real time quantitative RT-PCR was carried out. The fold increase in mRNA over the control was calculated.

[5] = tested on: MHC class II protein on the cell surface; experiment: Cell surface MHC class II protein by flow cytometry on Colon 26 and J558; type: cell-based, mouse; settings: J558; G2/M arrest experiment with nocodazole; data not shown
Procedure: To determine the effect of TSA on cell surface protein expression, the J558 cell line was subjected to flow cytometric analyses as follows. Flow cytometric analyses were conducted by standard methods using cells fixed with 1.0% paraformaldehyde and analyzed on the FACScan (Becton Dickinson). Cell cycle analyses were carried out by flow cytometry with PI staining of genomic DNA. Cells were fixed and permeablized in methanol, treated with RNaseA and analyzed for DNA content by determination of FL3-area on the FACScan. The FL3-area data were analyzed with the ModFit software for determination of the percent cells in each phase of the cell cycle. In some cases, fluorescein isothiocyanate (FITC)-conjugated antibody staining was conducted prior to PI treatment and surface staining was analyzed as a function of cell cycle phase. Apoptosis was analyzed by staining with annexin-V directly conjugated with either FITC or RPE and by sub-G0 analysis of DNA staining. Expression levels without treatment are shown as shaded peaks, IFNγ treated cell expression is plotted by a thin line while the level of expression on TSA treated cells is represented by a heavy line. Isotype controls were analyzed and, in each case, fell on or below the levels shown for control cells. MC and Colon 26 treatments are shown for 50 nM TSA for 48 hours, while J558 treatment is for 25 nM TSA for 24 hours. All IFNγ treatments were 100 U/ml for the same length of time as the corresponding TSA treatment. The percent of cells staining positive for MHC class II or CD40 expression is indicated below each histogram. Since all cells were positive for MHC class I expression, the number under the histogram represents -fold change of expression calculated from the mean channel-shift after treatment relative to untreated cells. Data are representative of at least three independent experiments. Of the 13 markers analyzed on J558 cells, only class I, II and CD40 were enhanced, while levels of several non-expressed antigens were not elicited (including CD25, B7 integrin, CD40L, H2K^k and IA^k) while other markers, which were expressed, were not altered (including CD44, CD54, CD80, CD86 and CD119) by TSA treatment. […] The highest expression (21-fold induction) was achieved on J558 cells after 24 hr by 25 nM TSA. […] The separation of control and IFNγ curves in the CD40, J558 experiment depicted in FIG. 8 represents a mean channel fluorescence difference of only 1.3 and was not seen on independent replicates of the experiment.
TSA has been described as a cell cycle inhibitor that induces both G1 and especially G2/M blocks (Bestor, 1998, Nature, 393:311-312; Yoshida et al., 1988, Exp. Cell Res. 177:122-131). MHC class II, but not class I, has been reported (Inokoshi et al., 1999, Biochem. Biophys. Res. Commun., 256:372-376; Monroe et al., 1983, J. Immunol., 130:626-631) to be regulated differentially during the cell cycle. Therefore the cell cycle of the cell lines used in the present invention was analyzed by DNA staining and flow cytometry with each of the treatment conditions under study. […] Two additional methods were used to analyze cell cycle effects on MHC expression. Since it has been reported that TSA arrests cell cycle mainly in G2/M, and class II has been reported to accumulate in G2/M (Monroe et al., 1983, supra), experiments were designed to essentially arrest 100% of J558 cells in G2/M with nocodazole. […] From the above experiments, it can be concluded that DAIs have specific effects on MHC class I and II, and CD40 gene expression, which is likely not a result of its action on the cell cycle.

[6] = tested on: CIITA mRNA; experiment: CIITA mRNA by RT-PCR and real-time PCR in mouse tumor cells Colon 26 and J558; type: cell-based
Procedure: as §1
(§4) In order to obtain more quantitative information on fold changes in DR and CIITA after treatment with the deacetylase inhibitors, a real time fluorescence technique capable of quantitating low copy numbers of transcripts was carried out as follows. Oligonucleotide primers and TaqMan 5′-6-FAM and 3′-TAMRA-labeled probes were synthesized in the RPCI Biopolymer Facility. Primer and probe sequences are listed under Sequence Listing and also in FIG. 9. Sequences were designed using standard software (PrimerExpress software, PE Biosystems) except for human GAPDH.
(§5) Realtime PCR reactions contained TaqMan Universal PCR Master Mix (PE Biosystems), primers at 300 nM, and probes at optimal concentrations (150-225 nM depending on gene). Reactions were carried out on an ABI PRISM 7700 Sequence Detection System (PE Biosystems). Cycling conditions were 50° C. for 2 min, 95° C. for 10 min, then 60 cycles of 95° C. for 15 sec, 60° C. for 1 min. PCR samples were run in triplicate. The detection system and quantitative PCR was carried out as described by Williamson et al. (1995, Genet Res. 65:83-93). The threshold cycle number CT corresponded to the cycle number, at which the fluorescent emission reaches 10 standard deviations above the mean fluorescent emission, measured during the early ‘baseline’ cycles of the PCR. The CT values for triplicates were averaged and normalized to GAPDH levels. […] In such cases, in order to calculate a minimum fold change for other samples in the same group, the CT value was arbitrarily set at 40. […] Assuming reverse transcription efficiencies were approximately the same for each sample, relative amounts of mRNA using the comparative CT method. Fold changes in mRNA levels were calculated as 2^x where x=the difference between normalized CT values of the control and experimental samples.
(§6) To determine if the effect of DAIs on MHC class II was manifested in other tumors and in different species, the effect of TSA was tested on four commonly used mouse tumor models: the SaI fibrosarcoma, the Colon 26 adenocarcinoma, the J558 plasmacytoma and the P815 mastocytoma. TSA induced class II in all four mouse tumors examined, while the effects of IFNγ were variable (FIG. 4). Data presented for each cell line represents optimal incubation time and concentration of TSA and is compared with 100 U/ml of IFNγ at the same time point. Numbers over bars represents fold changes. […] Colon 26 and J558 that differed strikingly in their reactivity to IFNγ were selected for further evaluation. RT-PCR and real time PCR was used to examine induction of CIITA and IAα by TSA and IFNγ. A20, a constitutively positive B cell line was used as a positive control. The results are shown in FIGS. 5A-D. The numbers over bars represent fold changes. […] Since the classical IFNγ inducible genes IRF-1 and GBP as well as MHC class I mRNA were not induced by IFNγ in J558 (data not shown), this cell line may have a signaling defect in the IFNγ pathway. Unexpectedly however, and unlike either the MC or Colon 26 cells, TSA induced both CIITA (102-fold) and Iα (537-fold) in J558 as shown in FIGS. 5B and 5D.

[7] = tested on: IAα mRNA; experiment: MHC class II (IAα) mRNA by RT-PCR and real-time PCR in mouse tumor models; type: cell-based
Procedure: as §1, §4, §5, §6

Molecule: CCCC(=O)[O-].[Na+] [sodium butyrate]
- toxicity [1]: non toxic
- fold increase in expression of DR ([2]; MC cells, real time PCR, 100 nM TSA 24 hr, NaBu 1 mM 48 hr, IFNγ any concentration or time point): 88 fold
- levels of mRNA for HLA-DRα (DR) ([2]; SK-N-MC, RT-PCR, 100 nM TSA 24 hours, 1 mM NaBu 48 hours, IFNγ): substantial increase
- fold increase in HLA-DRα (MHC class II) mRNA over the control ([3]; real time quantitative RT-PCR, 100 nM TSA, IFNγ 100 U/ml or combination for 12 hours, sodium butyrate (FIG. 2)): 12 fold
- levels of mRNA for DR ([3]; standard PCR, 100 nM or 250 nM TSA or 1 mM sodium butyrate): substantial increase
- increase in class II transactivator (CIITA) ([4]; JAR, real time PCR, sodium butyrate (FIG. 2)): no increase
- CIITA transcription ([4]; JAR, standard PCR at 35 cycles, 100 nM or 250 nM TSA or 1 mM sodium butyrate): undetectable
- CIITA mRNA fold change ([4]; MC cells, real time PCR up to 60 cycles, 100 nM TSA 24 hr, NaBu 1 mM 48 hr, IFNγ): no activation
- CIITA transcription ([4]; SK-N-MC, routine RT-PCR at 35 cycles, 100 nM TSA 24 hours, 1 mM NaBu 48 hours, IFNγ): undetectable

Molecule: COC(=O)Nc1nc2ccc(C(=O)c3cccs3)cc2[nH]1 [Nocodazole, nocodazole]
- MHC class II positive cells [5]: 23%

B1: IFNγ: gamma-interferon, cytokine used as comparator at 100 U/ml (protein, UniProt P01579 24-161, looked up)
Interferon gamma: QDPYVKEAENLKKYFNAGHSDVADNGTLFLGILKNWKEESDRKIMQSQIVSFYFKLFKNFKDDQSIQKSVETIKEDMNVKFFNSNKKKRDDFEKLTNYSVTDLNVQRKAIHELIQVMAELSPAAKTGKRKRSQMLFRG
- CIITA fold induction [6]: did not activate
- Iα (class II) fold induction [7]: did not activate
